Literature values as cited in patent publication US11053524B2, “Microorganisms having putrescine productivity and process for producing putrescine using the same” (CJ CHEILJEDANG CORPORATION, priority 2013, dated 2021).

Experiments:
PotFGHI = PotFGHI (Escherichia coli, UniProt P31133); conditions: read-out: Km of putrescine uptake
potABCD = potABCD (Escherichia coli, UniProt P0AFK9); conditions: read-out: Km of putrescine uptake
potE = potE (Escherichia coli, UniProt P0AAF1); conditions: read-out: Km of putrescine uptake
Sequence of potE (P0AAF1 whole entry): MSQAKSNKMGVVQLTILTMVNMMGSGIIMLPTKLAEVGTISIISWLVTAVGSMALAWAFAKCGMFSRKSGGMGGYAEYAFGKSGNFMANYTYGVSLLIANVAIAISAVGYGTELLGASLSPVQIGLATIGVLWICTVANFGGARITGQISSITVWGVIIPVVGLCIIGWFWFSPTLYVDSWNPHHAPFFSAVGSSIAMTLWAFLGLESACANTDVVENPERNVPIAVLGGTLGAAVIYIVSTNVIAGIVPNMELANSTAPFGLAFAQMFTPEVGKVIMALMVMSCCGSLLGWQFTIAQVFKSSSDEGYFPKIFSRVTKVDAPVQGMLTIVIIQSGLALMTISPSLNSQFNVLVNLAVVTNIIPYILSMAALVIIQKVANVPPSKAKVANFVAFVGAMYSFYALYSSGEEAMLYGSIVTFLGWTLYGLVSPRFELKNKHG

puuP = puuP (Escherichia coli, UniProt P76037); conditions: read-out: Km of putrescine uptake
Sequence of puuP (P76037 whole entry): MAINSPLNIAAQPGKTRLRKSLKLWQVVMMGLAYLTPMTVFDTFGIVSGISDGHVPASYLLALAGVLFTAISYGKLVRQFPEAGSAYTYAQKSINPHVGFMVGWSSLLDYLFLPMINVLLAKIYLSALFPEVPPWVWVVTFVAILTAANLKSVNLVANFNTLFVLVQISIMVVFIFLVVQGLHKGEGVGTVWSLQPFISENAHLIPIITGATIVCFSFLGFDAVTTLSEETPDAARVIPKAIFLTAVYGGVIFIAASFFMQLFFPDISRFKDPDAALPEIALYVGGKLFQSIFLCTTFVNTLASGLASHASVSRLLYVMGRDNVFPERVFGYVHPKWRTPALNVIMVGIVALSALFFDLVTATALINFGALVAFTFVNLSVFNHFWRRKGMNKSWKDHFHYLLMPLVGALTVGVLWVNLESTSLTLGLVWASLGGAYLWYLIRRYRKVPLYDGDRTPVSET

Sequence of PotFGHI (P31133 27-370): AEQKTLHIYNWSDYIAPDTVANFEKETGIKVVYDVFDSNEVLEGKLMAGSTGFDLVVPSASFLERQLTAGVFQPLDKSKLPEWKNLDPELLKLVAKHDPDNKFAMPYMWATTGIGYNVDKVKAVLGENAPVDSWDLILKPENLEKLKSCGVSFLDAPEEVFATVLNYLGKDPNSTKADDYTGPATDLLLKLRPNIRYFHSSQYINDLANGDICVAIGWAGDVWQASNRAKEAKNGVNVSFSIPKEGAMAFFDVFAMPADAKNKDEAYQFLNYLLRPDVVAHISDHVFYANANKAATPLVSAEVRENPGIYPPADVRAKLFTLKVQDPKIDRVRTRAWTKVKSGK
Sequence of potABCD (P0AFK9 24-348): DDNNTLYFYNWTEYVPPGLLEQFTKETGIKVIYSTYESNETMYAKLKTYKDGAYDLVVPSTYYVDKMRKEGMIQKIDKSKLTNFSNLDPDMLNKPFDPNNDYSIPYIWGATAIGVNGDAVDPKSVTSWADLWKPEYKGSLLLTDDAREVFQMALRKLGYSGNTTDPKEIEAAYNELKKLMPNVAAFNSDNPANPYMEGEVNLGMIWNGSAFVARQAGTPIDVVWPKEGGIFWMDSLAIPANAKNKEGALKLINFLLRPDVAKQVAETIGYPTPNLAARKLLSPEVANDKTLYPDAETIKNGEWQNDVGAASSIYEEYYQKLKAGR

NCCCCN [putrescine, 1,4-butanediamine]
Km (PotFGHI): 500 µM
Km (potABCD): 1500 µM
Km (potE): 1800 µM
Km (puuP): 3700 µM
putrescine concentration to which the cell is sensitive (yeast cell): 90 mM
putrescine concentration to which the cell is resistant (yeast cell; yeast cell over-expressing TPO5 gene): 120 mM
